Laboratory results: ChEMBL document CHEMBL5705888, “Substrate specificity and inhibitors of LRRK2, a protein kinase mutated in Parkinson's disease” (Biochem J, 2009)

Columns and labels:
[1] = target: T1, MAP kinase-activated protein kinase 5 (Homo sapiens) (UniProt Q8IW41); assay: Inhibition of PRAK (unknown origin) at 1 uM incubated for 30 mins in presence of [gamma-33P]ATP by multidrop micro reagent based assay relative to control; values are per cent of control
T1 sequence (whole entry): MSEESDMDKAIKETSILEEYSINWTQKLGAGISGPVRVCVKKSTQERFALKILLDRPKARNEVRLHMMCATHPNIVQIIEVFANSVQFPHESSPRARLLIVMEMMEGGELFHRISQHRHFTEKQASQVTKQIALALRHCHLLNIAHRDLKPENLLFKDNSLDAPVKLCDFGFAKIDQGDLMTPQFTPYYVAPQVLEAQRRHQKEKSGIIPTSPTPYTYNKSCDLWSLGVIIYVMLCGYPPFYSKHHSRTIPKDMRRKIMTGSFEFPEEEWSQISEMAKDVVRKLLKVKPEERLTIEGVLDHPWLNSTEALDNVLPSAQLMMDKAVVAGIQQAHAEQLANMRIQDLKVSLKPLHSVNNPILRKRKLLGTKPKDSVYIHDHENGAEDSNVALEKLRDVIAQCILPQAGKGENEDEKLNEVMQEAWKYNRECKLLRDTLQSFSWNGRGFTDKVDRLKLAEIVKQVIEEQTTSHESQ

[2] = target: Serine/threonine-protein kinase Nek6 (Homo sapiens) (UniProt Q9HC98); assay: Residual activity of NEK6 (unknown origin) at 10 uM incubated for 30 mins in presence of [gamma-33P]ATP by multidrop micro reagent based assay relative to control
Sequence of Serine/threonine-protein kinase Nek6 (Homo sapiens) (Q9HC98 whole entry): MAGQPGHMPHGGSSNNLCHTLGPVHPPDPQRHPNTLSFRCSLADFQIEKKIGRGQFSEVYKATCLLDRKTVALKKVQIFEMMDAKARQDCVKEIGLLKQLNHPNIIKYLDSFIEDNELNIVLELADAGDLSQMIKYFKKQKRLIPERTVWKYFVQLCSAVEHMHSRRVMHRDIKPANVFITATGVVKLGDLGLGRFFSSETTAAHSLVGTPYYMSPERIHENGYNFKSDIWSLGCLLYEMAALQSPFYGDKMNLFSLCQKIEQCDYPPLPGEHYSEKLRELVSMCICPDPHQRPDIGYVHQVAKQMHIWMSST

[3] = target: T2, Mitogen-activated protein kinase kinase kinase kinase 2 (Homo sapiens) (UniProt Q12851); assay: Inhibition of GCK (unknown origin) at 10 uM incubated for 30 mins in presence of [gamma-33P]ATP by multidrop micro reagent based assay relative to control; values are per cent of control
T2 sequence (whole entry): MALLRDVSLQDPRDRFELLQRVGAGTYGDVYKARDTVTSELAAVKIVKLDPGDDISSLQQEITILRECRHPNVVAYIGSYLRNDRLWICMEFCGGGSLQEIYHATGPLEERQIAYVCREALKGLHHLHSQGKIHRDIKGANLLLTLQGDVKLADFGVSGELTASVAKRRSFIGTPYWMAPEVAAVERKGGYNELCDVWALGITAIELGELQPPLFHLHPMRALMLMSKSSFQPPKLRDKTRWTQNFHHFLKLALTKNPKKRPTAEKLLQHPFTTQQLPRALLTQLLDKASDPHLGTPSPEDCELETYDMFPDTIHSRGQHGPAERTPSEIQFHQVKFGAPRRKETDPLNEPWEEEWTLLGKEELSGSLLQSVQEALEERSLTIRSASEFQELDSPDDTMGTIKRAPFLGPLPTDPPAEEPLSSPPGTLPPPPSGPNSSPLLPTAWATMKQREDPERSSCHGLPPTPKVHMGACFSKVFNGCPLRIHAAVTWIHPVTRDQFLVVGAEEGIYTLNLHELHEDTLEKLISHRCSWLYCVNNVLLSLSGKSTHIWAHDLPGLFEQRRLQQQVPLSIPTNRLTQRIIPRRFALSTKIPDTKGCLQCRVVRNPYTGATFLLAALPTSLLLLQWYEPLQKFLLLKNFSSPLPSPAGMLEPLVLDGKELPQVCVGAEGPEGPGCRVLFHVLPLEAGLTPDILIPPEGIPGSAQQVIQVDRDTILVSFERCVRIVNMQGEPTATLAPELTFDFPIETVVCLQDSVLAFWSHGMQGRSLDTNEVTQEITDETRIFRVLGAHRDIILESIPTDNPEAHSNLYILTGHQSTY

[4] = target: T3, Serine/threonine-protein kinase 3 (Homo sapiens) (UniProt Q13188); assay: Inhibition of MST2 (unknown origin) at 10 uM incubated for 30 mins in presence of [gamma-33P]ATP by multidrop micro reagent based assay relative to control; values are per cent of control
T3 sequence (whole entry): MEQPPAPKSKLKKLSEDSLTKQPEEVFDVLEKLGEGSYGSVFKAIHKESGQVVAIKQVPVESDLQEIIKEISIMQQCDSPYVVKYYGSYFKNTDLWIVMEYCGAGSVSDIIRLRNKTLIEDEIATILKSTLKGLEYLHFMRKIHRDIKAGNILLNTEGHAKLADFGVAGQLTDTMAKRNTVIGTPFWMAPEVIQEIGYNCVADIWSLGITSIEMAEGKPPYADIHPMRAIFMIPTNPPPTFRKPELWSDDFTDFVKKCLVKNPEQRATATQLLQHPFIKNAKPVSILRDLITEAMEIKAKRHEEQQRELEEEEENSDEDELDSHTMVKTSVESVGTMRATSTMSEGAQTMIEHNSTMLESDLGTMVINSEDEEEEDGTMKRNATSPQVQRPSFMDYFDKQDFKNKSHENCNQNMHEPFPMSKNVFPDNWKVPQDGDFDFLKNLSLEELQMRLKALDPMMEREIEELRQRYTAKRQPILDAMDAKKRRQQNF

[5] = target: Mitogen-activated protein kinase 9 (Homo sapiens) (UniProt P45984); assay: Inhibition of JNK2 (unknown origin) at 1 uM incubated for 30 mins in presence of [gamma-33P]ATP by multidrop micro reagent based assay relative to control; values are per cent of control
Sequence of Mitogen-activated protein kinase 9 (Homo sapiens) (P45984 whole entry, looked up): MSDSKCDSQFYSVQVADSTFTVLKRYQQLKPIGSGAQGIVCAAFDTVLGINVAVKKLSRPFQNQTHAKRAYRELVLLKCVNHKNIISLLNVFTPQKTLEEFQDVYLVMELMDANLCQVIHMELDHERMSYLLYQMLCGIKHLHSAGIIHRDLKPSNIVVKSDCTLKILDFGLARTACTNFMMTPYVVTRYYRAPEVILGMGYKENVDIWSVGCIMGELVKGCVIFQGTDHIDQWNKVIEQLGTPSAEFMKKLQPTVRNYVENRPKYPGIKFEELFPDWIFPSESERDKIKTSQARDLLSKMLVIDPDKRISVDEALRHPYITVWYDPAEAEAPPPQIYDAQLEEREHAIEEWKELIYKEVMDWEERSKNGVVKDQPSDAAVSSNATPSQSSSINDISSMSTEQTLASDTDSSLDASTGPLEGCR

[6] = target: SRSF protein kinase 1 (Homo sapiens) (UniProt Q96SB4); assay: Inhibition of SRPK1 (unknown origin) at 1 uM incubated for 30 mins in presence of [gamma-33P]ATP by multidrop micro reagent based assay relative to control; values are per cent of control
Sequence of SRSF protein kinase 1 (Homo sapiens) (Q96SB4 whole entry): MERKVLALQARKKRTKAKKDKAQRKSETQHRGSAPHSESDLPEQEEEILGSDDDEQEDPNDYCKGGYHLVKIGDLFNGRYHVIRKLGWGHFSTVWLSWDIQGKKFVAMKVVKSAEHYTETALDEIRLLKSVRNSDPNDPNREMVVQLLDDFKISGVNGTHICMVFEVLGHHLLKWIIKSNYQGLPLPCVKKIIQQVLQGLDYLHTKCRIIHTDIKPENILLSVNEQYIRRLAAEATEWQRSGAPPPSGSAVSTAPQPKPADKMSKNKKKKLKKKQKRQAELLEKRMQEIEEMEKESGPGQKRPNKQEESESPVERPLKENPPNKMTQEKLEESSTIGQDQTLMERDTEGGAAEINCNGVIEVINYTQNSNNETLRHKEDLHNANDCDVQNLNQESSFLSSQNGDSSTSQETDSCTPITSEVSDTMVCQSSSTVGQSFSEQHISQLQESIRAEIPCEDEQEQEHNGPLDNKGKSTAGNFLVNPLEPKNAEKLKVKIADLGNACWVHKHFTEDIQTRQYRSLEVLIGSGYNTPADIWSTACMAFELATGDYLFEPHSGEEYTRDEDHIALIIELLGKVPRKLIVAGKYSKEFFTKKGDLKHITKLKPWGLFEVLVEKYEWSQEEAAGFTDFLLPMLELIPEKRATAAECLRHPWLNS

| SMILES | residual activity [1] | residual activity [2] | residual activity [3] | residual activity [4] | residual activity [5] | residual activity [6] |
| --- | --- | --- | --- | --- | --- | --- |
| CCN(CC)CCNC(=O)c1c(C)[nH]c(/C=C2\C(=O)Nc3ccc(F)cc32)c1C | 75% | – | – | – | – | – |
| C[C@@H](N)[C@H]1CC[C@H](C(=O)Nc2ccncc2)CC1 | – | 80% | 89% | 61% | – | – |
| CC1=C(C(=O)Nc2cc3cn[nH]c3cc2F)C(c2ccc(C(F)(F)F)cc2)CC(=O)N1 (configuration not stated) | 92% | – | – | – | 101% | 71% |
| O=S(=O)(c1cccc2cnccc12)N1CCCNCC1 [FASUDIL] | – | 107% | 55% | 51% | – | – |
| Cc1cncc2cccc(S(=O)(=O)N3CCCNC[C@@H]3C)c12 | – | – | – | – | – | 125% |
| CCn1c(-c2nonc2N)nc2cnc(Oc3cccc(NC(=O)c4ccc(OCCN5CCOCC5)cc4)c3)cc21 [GSK-269962A] | – | – | – | – | 101% | – |
